Usually pKa stands for the pH at which an ionisable group is half protonated.

The target of one data set is glucose oxidase (GOx) (Aspergillus niger, UniProt P13006). The data set can be described thus: Glucose oxidase-directed DCL of building blocks 1-4. More on the design: purchased Sigma Aldrich; unit not given here. Conditions: blank vs GOx template DCL; GOx 57 μM, Secox 5% mol, 24 h. How it is done:
The equilibration of the DCL was completed after 24 h (Fig. 9) and the oligomers were identified by HPLC-MS (Supplementary Figs. 4–20). The precise composition of the DCL (with and without GOx), was assessed by measuring the relative peak area (RPA). The normalized change of RPA was used to quantify the protein influence in the final DCL showing the amplification of the dimer of compound 4, that is (4)2 (Fig. 9b). Control experiments were set up to verify that the amplification of the dimer was not due to unspecific binding. Firstly the GOx was replaced by the bovine serum albumin (BSA). A stability study of BSA under the DCL conditions was performed using a fluorescence technique confirming the BSA stability in the DCL experiment (Supplementary Fig. 48)[50].
The DCL was stabilized for 24 h at 6 °C. Then, GOx was removed by ultracentrifugation through an Amicon ultra-filter (100 KDa). HPLC analysis was performed.

Data set [1] can be described thus: Spermidine-templated DCL of building blocks 1-4.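 Note: Spermidine-templated dynamic combinatorial library, normalized change of RPA compared between Secox-free and Secox-containing libraries, DCC runs done in triplicate, values given as mean ± SD.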
A short description of data set [2]: NADPH-templated DCL of building blocks 1-4.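 Note: values are means ± SD of DCC experiments run in triplicate.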
Data set [3] is described as follows: Spermine-templated DCL of building blocks 1-4. The note with it: spermine DCL of 1-4. On the procedure:
(§1) Building blocks 2 and 3 equipped with carboxylate moieties to establish interactions with the protonated amine groups of the spermine were allowed to equilibrate at pH 7.8 and 6 °C (Fig. 8a). As expected in our control experiment, the major component in the absence of spermine was the linear tetramer (2)2(3)2. After the addition of spermine, the linear tetramer “decomposed” in order to form mainly the cyclic tetramer of (2)4, and the (3)2 dimer (Fig. 8a). As it was reported, several studies determined that the spermine was threaded through the macrocycle fixing the configuration to a highly symmetric stereoisomer of (2)4[36]. […] The precise composition of the DCL (with and without spermine), was assessed by measuring the relative peak area (RPA). Indeed, the normalized change of RPA was used to quantify the spermine influence in the outcome (Supplementary Fig. 42)[46]. The same template (spermine) was tested in our reference DCL of four building blocks (1–4) in the absence and presence of Secox (Fig. 8b). […] Additionally, two different templates were tested to confirm the absence of conflict between selenocystine and the templating effect. Spermidine and NADPH were introduced in our 4 building blocks DCL (1–4) in the absence and presence of Secox, leading to the amplification of different species and getting the same results as the non-catalyzed DCLs (Supplementary Figs. 44, 45, Supplementary Tables 7–10, and Supplementary Methods).
The mixture was stabilized in 96 h. […] The mixture was stabilized after 24 h. […] It was stabilized in 24 h. […] DCL was equilibrated in 96 h. DCLs were performed without stirring at 6 °C and analyzed by HPLC-MS.

Data set [4] concerns the target bovine serum albumin (BSA) (Bos taurus, UniProt P02769). The data set can be described thus: BSA-directed DCL of building blocks 1-4. Further details: purchased Roche; key to NC of RPA: normalized change of relative peak area (RPA) vs blank DCL. Conditions: blank vs BSA-DCL; BSA 57 µM, Secox 5% mol, 24 h.
For data set [5] the following is noted: cited from earlier work.
Data set [6] is described as follows: Equilibration of the thiol-disulfide DCL of building blocks 1-4 followed by HPLC-MS. Conditions: 190 μM as fifth building block; Tris 20 mM pH 7.8, 6 °C; control 4 days. How it is done:
DMSO percentage is 2.5% v/v. […] DCLs were analyzed by HPLC-MS until equilibration without stirring at 6 °C.
Control DCL. […] DMSO percentage is 2.5% v/v. Regarding Secox catalyzed DCL, different stocks of Secox were carried out in order to study the percentages of Secox. […] The DCLs were prepared at 6 °C without stirring and analyzed in several hours until the complete stabilization.

Data set [7] is described as follows: Spermine-templated DCL of building blocks 2 and 3. The note with it: spermine DCL of 2 and 3. How it is done: as §1
The DCL was stabilized at 96 h. […] The mixture was stabilized after 24 h. […] The DCL was stabilized at 96 h. […] The DCL was analyzed in 96 h after equilibration. DCLs were performed without stirring at 6 °C and analyzed by HPLC-MS.

Several values for one entry are separate records, joined by “and”; a condition that tells them apart may be missing. Identical values can stand only once. Like-named read-outs stand apart in the source and are kept apart here.

Chain of glucose oxidase (GOx) (P13006 17-605): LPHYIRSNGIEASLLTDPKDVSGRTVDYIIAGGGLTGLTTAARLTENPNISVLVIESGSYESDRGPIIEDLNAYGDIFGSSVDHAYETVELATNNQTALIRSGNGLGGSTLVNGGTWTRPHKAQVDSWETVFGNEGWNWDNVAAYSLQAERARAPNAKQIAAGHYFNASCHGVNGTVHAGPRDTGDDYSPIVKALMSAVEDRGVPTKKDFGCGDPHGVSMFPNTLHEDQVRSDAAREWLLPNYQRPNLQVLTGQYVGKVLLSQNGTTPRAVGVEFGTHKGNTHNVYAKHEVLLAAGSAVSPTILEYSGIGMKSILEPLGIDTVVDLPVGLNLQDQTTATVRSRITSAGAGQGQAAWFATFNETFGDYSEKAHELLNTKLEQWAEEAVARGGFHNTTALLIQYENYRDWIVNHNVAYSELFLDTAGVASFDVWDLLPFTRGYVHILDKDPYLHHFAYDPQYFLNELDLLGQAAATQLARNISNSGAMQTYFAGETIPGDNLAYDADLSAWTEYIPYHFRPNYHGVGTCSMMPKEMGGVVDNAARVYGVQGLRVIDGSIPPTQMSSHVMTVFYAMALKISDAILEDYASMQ
Chain of bovine serum albumin (BSA) (P02769 25-607): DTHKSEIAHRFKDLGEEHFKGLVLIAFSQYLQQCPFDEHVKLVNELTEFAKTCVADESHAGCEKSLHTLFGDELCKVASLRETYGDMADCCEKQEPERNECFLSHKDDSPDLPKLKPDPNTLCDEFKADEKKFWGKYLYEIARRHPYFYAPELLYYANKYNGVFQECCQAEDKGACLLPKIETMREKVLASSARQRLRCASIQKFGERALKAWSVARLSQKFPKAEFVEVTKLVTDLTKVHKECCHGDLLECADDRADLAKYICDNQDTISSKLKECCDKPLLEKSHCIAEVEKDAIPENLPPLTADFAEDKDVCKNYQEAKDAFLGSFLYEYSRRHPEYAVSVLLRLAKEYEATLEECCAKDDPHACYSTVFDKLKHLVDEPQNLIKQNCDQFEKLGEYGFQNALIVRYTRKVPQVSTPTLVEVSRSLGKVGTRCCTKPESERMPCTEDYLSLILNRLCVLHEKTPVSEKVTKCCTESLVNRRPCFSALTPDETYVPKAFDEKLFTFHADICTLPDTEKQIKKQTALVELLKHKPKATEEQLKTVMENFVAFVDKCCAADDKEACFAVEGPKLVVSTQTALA

With `O=C(O)c1cc(SSc2cc(C(=O)O)c(SSc3ccccc3)cc2C(=O)O)c(C(=O)O)cc1SSc1ccccc1` [(2)2(4)2], the entries for the “NC of RPA” value (on glucose oxidase (GOx); in data set [4]) were -1,00 and 0,31, respectively. Further, the “Normalized Change of RPA (NC)” value in data set [1] (0% Secox) is listed as -1,00; in data set [1] (5% Secox), -1,00; in data set [2] (0% Secox), 0,13; in data set [2] (5% Secox), 0,11; in data set [3] (0% Secox), -1,00; in data set [3] (5% Secox), -1,00.
Consider `O=C(O)c1cccc(SSc2cc(SSc3cc(SSc4cccc(C(=O)O)c4)cc(C(=O)O)c3)cc(C(=O)O)c2)c1` [(1)2(3)2], for which the “NC of RPA” value on glucose oxidase (GOx) was -0,36; in data set [4] it was 0,63. Moreover, the “Normalized Change of RPA (NC)” value is 0,34 in data set [1] (0% Secox); 0,27 in data set [1] (5% Secox); -0,06 in data set [2] (0% Secox); -0,06 in data set [2] (5% Secox); 0,46 in data set [3] (0% Secox); 0,38 in data set [3] (5% Secox).
With `O=C(O)c1cc(SSc2ccccc2)c(C(=O)O)cc1SSc1ccccc1` [(2)(4)2], the “NC of RPA” value is on record as 0,19 on glucose oxidase (GOx) and 1,30 in data set [4]. Further, the “Normalized Change of RPA (NC)” value in data set [1] (0% Secox) is recorded as 0,06; in data set [1] (5% Secox), 0,04; in data set [2] (0% Secox) it was -0,16; in data set [2] (5% Secox), -0,18; in data set [3] (0% Secox) it was 0,08; in data set [3] (5% Secox) it was 0,08.
Consider `O=C(O)c1cc2cc(c1)SSc1cc(cc(C(=O)O)c1)SSc1cc(cc(C(=O)O)c1)SSc1cc(cc(C(=O)O)c1)SS2` [(1)4], for which the “NC of RPA” value at glucose oxidase (GOx) was -0,86; in data set [4] it was 0,14. For the same compound, the “Normalized Change of RPA (NC)” value in data set [1] (0% Secox) was -0,47; in data set [1] (5% Secox), -0,43; in data set [2] (0% Secox), -0,84; in data set [2] (5% Secox) it was -0,88; in data set [3] (0% Secox) it was -0,14; in data set [3] (5% Secox), -0,12.
For `O=C(O)c1cc(SSc2ccccc2)cc(SSc2cc(C(=O)O)c(SSc3ccccc3)cc2C(=O)O)c1` [(1)(2)(4)2], the “NC of RPA” value on glucose oxidase (GOx) was -1,00; in data set [4] it was 2,84. The “Normalized Change of RPA (NC)” value in data set [1] (0% Secox), in data set [1] (5% Secox), in data set [2] (0% Secox), in data set [2] (5% Secox), in data set [3] (0% Secox) and in data set [3] (5% Secox) was -1,00 each time.
`O=C(O)c1cc(SSc2ccccc2)cc(SSc2ccccc2)c1` [(1)(4)2]: in data set [4], the “NC of RPA” value was 45,89.
For the compound `N[C@@H](C[SeH])C(=O)O` [Sec, selenocysteine], the pKa in data set [5] (Sec) is 5.43 and ~ 5.43.
For `O=C(O)c1cccc(SSc2cc(C(=O)O)c(SSc3cc(C(=O)O)c(SSc4cccc(C(=O)O)c4)cc3C(=O)O)cc2C(=O)O)c1` [(2)2(3)2], the “NC of RPA” value (at glucose oxidase (GOx); in data set [4]) was -1,00 each time. The “Normalized Change of RPA (NC)” value in data set [1] (0% Secox) is recorded as -1,00; in data set [1] (5% Secox) it was -1,00; in data set [2] (0% Secox), -0,69; in data set [2] (5% Secox) it was -0,64; in data set [3] (0% Secox), -1,00; in data set [3] (5% Secox), -1,00.
`N[C@@H](CSSC[C@H](N)C(=O)O)C(=O)O` [Cysox, cystine] gave a DCL equilibration time in data set [6] of 3 days.
As to `O=C(O)c1cc2cc(c1)SSc1cc(cc(C(=O)O)c1)SSc1cc(cc(C(=O)O)c1)SS2` [(1)3], the results for the “NC of RPA” value (on glucose oxidase (GOx); in data set [4]) were -0,21 and -0,19, respectively. The “Normalized Change of RPA (NC)” value is on record as -0,42 in data set [1] (0% Secox); -0,44 in data set [1] (5% Secox); -0,70 in data set [2] (0% Secox); -0,68 in data set [2] (5% Secox); -0,65 in data set [3] (0% Secox); -0,66 in data set [3] (5% Secox).
Turning to `O=C(O)c1cccc(SSc2cc(C(=O)O)c(SSc3cccc(C(=O)O)c3)cc2C(=O)O)c1` [(2)(3)2], the “NC of RPA” value is recorded as 0,72 at glucose oxidase (GOx) and -1,00 in data set [4]. Moreover, the “Normalized Change of RPA (NC)” value in data set [1] (0% Secox) is -0,11; in data set [1] (5% Secox), -0,19; in data set [2] (0% Secox), 2,41; in data set [2] (5% Secox), 2,37; in data set [3] (0% Secox) it was -0,26; in data set [3] (5% Secox), -0,28.
As for `O=C(O)c1cccc(SSc2cc(C(=O)O)c(SSc3ccccc3)cc2C(=O)O)c1` [(2)(3)(4)], the “NC of RPA” value at glucose oxidase (GOx) was -0,32; in data set [4] it was 0,95. Further, the “Normalized Change of RPA (NC)” value in data set [1] (0% Secox) was -0,64; in data set [1] (5% Secox), -0,65; in data set [2] (0% Secox), -0,12; in data set [2] (5% Secox), -0,12; in data set [3] (0% Secox) it was -0,75; in data set [3] (5% Secox), -0,74.
On to `O=C(O)c1cccc(SSc2cc(SSc3ccccc3)cc(C(=O)O)c2)c1` [(3)(1)(4)], for which the “NC of RPA” value at glucose oxidase (GOx) was 0,54; in data set [4], 2,28. For the same compound, the “Normalized Change of RPA (NC)” value in data set [1] (0% Secox) was -1,00; in data set [1] (5% Secox) it was -1,00; in data set [2] (0% Secox) it was -0,82; in data set [2] (5% Secox), -0,76; in data set [3] (0% Secox), -0,51; in data set [3] (5% Secox), -0,51.
With `N[C@@H](CS)C(=O)O` [Cys, cysteine], in data set [5] (Cys thiol group), the pKa is 8.22 and ~ 8.22.
Take `O=C(O)c1cccc(SSc2cc(SSc3cccc(C(=O)O)c3)cc(C(=O)O)c2)c1` [(1)(3)2]: the “NC of RPA” value on glucose oxidase (GOx) is reported as -0,46; in data set [4] it was -0,75. Further, the “Normalized Change of RPA (NC)” value is recorded as 0,83 in data set [1] (0% Secox); 0,86 in data set [1] (5% Secox); 1,24 in data set [2] (0% Secox); 1,23 in data set [2] (5% Secox); 1,19 in data set [3] (0% Secox); 1,25 in data set [3] (5% Secox).
For the compound `O=C(O)c1cccc(SSc2cccc(C(=O)O)c2)c1` [(3)2, 3,3'-disulfanediyldibenzoic acid], the entries for the “NC of RPA” value (on glucose oxidase (GOx); in data set [4]) were -0,35 and -0,64, respectively. Also, the “Normalized Change of RPA (NC)” value in data set [7] (Secox) is 0.1; in data set [7] (no Secox), 0.1; in data set [1] (0% Secox) it was 0,51; in data set [1] (5% Secox) it was 0,51; in data set [2] (0% Secox), 0,56; in data set [2] (5% Secox), 0,49. The “Normalized Change of RPA (NC)” value in data set [3] (0% Secox) and in data set [3] (5% Secox) was 0,49 throughout.

The record behind these values is publication PMC7794297.
